In PMC12114895, “Lanthanides-Based Nanoparticles Conjugated with Rose Bengal for FRET-Mediated X-Ray-Induced PDT” (Pharmaceuticals, 2025):
Entries after “also recorded” stand apart in the source; their conditions may differ. Where two headings read alike, the source gives them in different places.

Tests used:
NRP-1 [1] = target: T1, NRP-1 (Homo sapiens, UniProt O14786); experiment: NRP-1 binding, competitive assay; settings: conjugated via maleimide on AGuIX NPs
Protocol: The affinity of AGuIX Ln@Mal-K(RB) and AGuIX Ln@Mal-K(RB)DKPPR to NRP-1 was determined as previously described in terms of IC50 in another study.

NRP-1 [2] = target: T1, NRP-1; settings: peptide alone, cited from earlier work
Protocol: In the nano AGuIX platform tested, firstly, DOTA was chelated with Gd or Tb, and secondly, a targeted peptide recognizing neuropilin 1 (NRP-1) coupled to RB (i.e., K(RB)DKPPR) was conjugated to the surface of AGuIX NPs. […] In K(RB)DKPPR, conjugation via a maleimide function enhanced the affinity constant to the order of nM. Finally, NPs were tested in vitro on U-251 MG cells, derived from a human glioblastoma multiforme, using an anchorage-dependent clonogenic assay. […] An increase in SOSG fluorescence signal was observed confirming ^1O2 production, which was inhibited by the addition of NaN3 in the reaction mixture (Figure 11).

RB fluorescence lifetime = assay type: physicochemical; settings: D2O, λexc = 470 nm
Protocol: The Ln luminescence lifetime is recorded after excitation at 545 nm for Tb and 313 nm for Gd. The fluorescence lifetime of RB is recorded after excitation at 470 nm ( τf470 ). ^1O2 emission spectra are obtained after excitation at 558 nm (maximum absorption wavelength of RB) but also after excitation at 351 nm for Tb and 273 nm for Gd.
(§1) Absorption spectra were recorded on a UV-3600 UV–visible double beam spectrophotometer (Shimadzu, Marne-La-Vallée, France). Fluorescence spectra were recorded on a Fluorolog FL3-222 spectrofluorimeter (Horiba Jobin Yvon, Palaiseau, France) equipped with a 450 W Xenon lamp and thermostated cell compartment (25 °C), a UV–visible photomultiplier R928 (Hamamatsu Photonics, Hamamatsu, Japan) and an InGaAs infrared detector (DSS-16A020L Electro-Optical System Inc, Phoenixville, PA, USA). The excitation beam was diffracted by a double ruled grating SPEX monochromator (1200 grooves/mm blazed at 330 nm). The emission beam was diffracted by a double ruled grating SPEX monochromator (1200 grooves/mm blazed at 500 nm). Singlet oxygen emission was detected through a double ruled grating SPEX monochromator (600 grooves/mm blazed at 1 µm) and a long-wave pass (780 nm). All spectra were measured in four-face quartz vials.

[3] = Singlet oxygen production quantum yield; assay type: physicochemical; settings: D2O, reference Eosin Y; for ^1O2 quantum yield ΦΔ558: λexc = 558 nm
[4] = Fluorescence quantum yield; assay type: physicochemical; settings: D2O, λexc = 558 nm; reference tetraphenylporphyrin
Protocol: as §1
The fluorescence quantum yield (Φf) is calculated using Equation (6).(6) Φf=Φf0 . If/If0.OD0/OD. (n/n0)^2 where Φf and Φf0, If and If0, OD and OD0, n and n0 are the quantum yields, fluorescence intensities, optical densities, and refractive indices of the sample and reference, respectively.
Tetraphenylporphyrin (TPP) was chosen as the fluorescence reference standard (Φf0 = 0.11, toluene).

[5] = in ethanol; cited from earlier work
Source text: RB is a xanthene PS [22] derived from fluorescein (Figure 1a) with interesting photophysical and sonosensitive properties. For example, Nonaka et al. used sonodynamic therapy (SDT) with RB and focused ultra-sound to treat experimental intracranial glioma in rats. […] RB photoactivation can be used for external application on the body, such as wound sealing or ...

Zeta potential = assay type: physicochemical; settings: DLS, Zetasizer Nano-Z, He-Ne 633 nm; pH 7.2 mentioned; listed as AGuIX Ln@Mal-K(RB)DKPPR (Ln = Gd)
Protocol: The zeta potential (ξ) for each NPs was determined using Zetasizer Nano-Z (Malvern, UK) equipped with a He-Ne laser at 633 nm.

[6] = Hydrodynamic size by TDA-ICP-MS; assay type: physicochemical; settings: Table 4, listed as AGuIX Ln@Mal-K(RB)DKPPR (Ln = Gd)
Protocol: TDA experiments were conducted using a TDA-ICP-MS hyphenation between a Sciex P/ACE MDQ instrument and a 7700 Agilent ICP-MS. Fused silica capillaries with an inner diameter of 75 µm and outer diameter of 375 µm, and a total length of 64 cm, were coated with hydroxypropylcellulose (HPC) using a solution of 0.05 g mL^−1 in water. Detection was carried out by ICP-MS at m/z = 158 and m/z = 159 for Gd and Tb detection, respectively. Samples were hydrodynamically injected (0.3psi for 3 s), then mobilized using Tris 10 mM and NaCl 125 mM at 0.7 psi. Between runs, the capillary was flushed at 5 psi for 5 min with the mobilization medium. All measurements were performed at least in duplicates.
The detected peak was fitted by a sum of Gaussian distributions using Origin 8.5 software, according to Equation (8).(8) St=∑i=12Ai/σi 2πexp−t−t0^2/2σi2 where t0 is the peak residence time, and […] are the area under the curve and the temporal variance associated with each species i, respectively.
Under these experimental conditions, the molecular diffusion coefficient D is given by(9) D=Rc2t0/24σ^2=2kBT/6πηDh where Rc is the capillary radius, kB is the Boltzmann constant, T is the temperature, η is the viscosity, and Dh is the hydrodynamic diameter of the solute.
Therefore, using Equation (9), the hydrodynamic diameters can be calculated from the temporal variances measured from the fitted Taylorgram.

Ln luminescence lifetime = assay type: physicochemical; settings: D2O, λexc/λdetection = 273/313 nm
U-251 MG cells = experiment: Anchorage-dependent clonogenic assay with X-ray irradiation; assay type: cell-based, human; settings: [RB] = 1 µM, 24 h, X-ray 2 Gy (320 kV, 10 mA, 3 Gy/min), clones after 7 days; fraction of untreated non-irradiated cells; mean, triplicates from 3 experiments (n = 9)
[7] = listed as AGuIX Ln@Mal-K(RB)DKPPR (Ln = Gd)

T1 sequence (O14786 22-923): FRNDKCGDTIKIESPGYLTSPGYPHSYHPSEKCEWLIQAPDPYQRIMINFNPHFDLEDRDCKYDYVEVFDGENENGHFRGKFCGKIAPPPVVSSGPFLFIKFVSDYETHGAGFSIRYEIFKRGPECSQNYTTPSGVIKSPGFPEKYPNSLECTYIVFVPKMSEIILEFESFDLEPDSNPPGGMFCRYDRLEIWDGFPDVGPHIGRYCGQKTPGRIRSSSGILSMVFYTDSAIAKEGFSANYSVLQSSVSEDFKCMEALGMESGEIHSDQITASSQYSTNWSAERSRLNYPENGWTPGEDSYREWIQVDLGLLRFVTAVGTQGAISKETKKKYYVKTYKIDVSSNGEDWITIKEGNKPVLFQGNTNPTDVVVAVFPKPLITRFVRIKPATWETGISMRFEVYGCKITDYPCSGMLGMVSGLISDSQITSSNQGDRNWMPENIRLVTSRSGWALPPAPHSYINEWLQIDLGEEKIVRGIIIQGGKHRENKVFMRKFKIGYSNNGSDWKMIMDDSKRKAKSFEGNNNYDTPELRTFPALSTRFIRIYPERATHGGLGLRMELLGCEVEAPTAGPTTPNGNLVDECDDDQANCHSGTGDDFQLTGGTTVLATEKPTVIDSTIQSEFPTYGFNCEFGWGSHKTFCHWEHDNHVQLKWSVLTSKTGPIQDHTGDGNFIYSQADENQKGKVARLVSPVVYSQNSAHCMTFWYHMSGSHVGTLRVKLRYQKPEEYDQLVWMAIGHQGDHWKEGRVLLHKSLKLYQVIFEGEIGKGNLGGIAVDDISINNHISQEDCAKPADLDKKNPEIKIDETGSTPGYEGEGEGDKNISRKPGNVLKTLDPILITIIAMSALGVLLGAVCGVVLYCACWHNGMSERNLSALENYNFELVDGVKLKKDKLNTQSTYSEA

K(RB)DKPPR [NRP-1-targeting peptide coupled to RB]
affinity for NRP-1 (NRP-1 [1]): order of nM; also recorded: affinity in the nM range

KDKPPR [NRP-1-targeting peptide]
affinity for NRP-1 (NRP-1 [2]; ref 37): affinity of the order of μM | affinity for NRP-1 (NRP-1 [2]; ref 40): micromolar affinity | binding affinity for NRP-1 (NRP-1 [2]; ref 41): around 1 μM

O=C1OC2(c3cc(I)c(O)c(I)c3Oc3c2cc(I)c(O)c3I)c2c(Cl)c(Cl)c(Cl)c(Cl)c21 [RB, Rose Bengal]
RB fluorescence lifetime τf470 (RB fluorescence lifetime): 0.63 ns | ^1O2 quantum yield ΦΔ351(Tb) or ΦΔ273(Gd) ([3]; λexc = 351 nm or 273 nm (not told apart for RB)): 0.00 | ^1O2 quantum yield ΦΔ558 [3]: 0.67 | Fluorescence quantum yield Φf558 [4]: 0.15 | fluorescence quantum yield (Φf) [5]: 0.11 | singlet oxygen quantum yield (ΦΔ) [5]: 0.68

Mal-K(RB)DKPPR [AGuIX Gd@Mal-K(RB)DKPPR, Mal-K(RB)DKPPR conjugated to thiolated AGuIX Gd NPs by thiol-maleimide click chemistry]
Zeta potential (ζ) (Zeta potential): −10 mV | percentage of population P1 [6]: 95% | percentage of population P2 [6]: 5% | Size, population P1 ([6]; Tris 10 mM and NaCl 125 mM): 2.9 nm | Size, population P2 ([6]; Tris 10 mM and NaCl 125 mM): 14.0 nm | RB fluorescence lifetime τf470 (RB fluorescence lifetime; [7]): 3.8 ns | Ln luminescence lifetime τL (Gd) (Ln luminescence lifetime): 345 µs | ^1O2 quantum yield ΦΔ273(Gd) ([3]; λexc = 273 nm): 0.35 | ^1O2 quantum yield ΦΔ558 [3, 7]: 0.67 | Fluorescence quantum yield Φf558 [4]: 0.11 | Cell survival (clonogenic capability relative to control) (U-251 MG cells): 0.63
